Calls of active or inactive are those of the source. The calls are words filed in the database; no cut-off is given here.
Assays:
Escherichia coli = assay: Antibacterial activity against Escherichia coli XL-1 Blue assessed as inhibition of microbial growth at 0.064 ug/ml to 125 ug/ml incubated at 37 degC for 20 hrs; format: functional, organism-based
Staphylococcus aureus [1] = assay: Antibacterial activity against methicillin-resistant Staphylococcus aureus ATCC 33591 assessed as inhibition of microbial growth at 0.064 ug/ml to 125 ug/ml incubated at 37 degC for 20 hrs; format: functional; conditions: ATCC 33591, 20 h
Staphylococcus aureus [2] = assay: Antibacterial activity against Staphylococcus aureus ATCC 25923 assessed as inhibition of microbial growth at 0.064 ug/ml to 125 ug/ml incubated at 37 degC for 20 hrs; format: functional; conditions: ATCC 25923, 20 h

| SMILES | MIC (Escherichia coli) | MIC (Staphylococcus aureus [1]) | MIC (Staphylococcus aureus [2]) |
| --- | --- | --- | --- |
| CC(=O)OC1C[C@@]2(C)[C@@H](CC[C@H]3[C@@]4(C)CCC(=O)[C@@H](C)[C@@H]4[C@@H](O)[C@H](O)[C@@]32C)/C1=C(\CCC=C(C)C)C(=O)O (single isomer, unassigned) | inactive | > 125 µg/mL | > 125 µg/mL |
| CC(=O)O[C@@H]1[C@H]2[C@H](C)[C@H](O)CC[C@]2(C)[C@@H]2CC[C@H]3/C(=C(\CCC=C(C)C)C(=O)O)[C@@H](OC(C)=O)C[C@]3(C)[C@@]2(C)[C@H]1O | inactive | 8 µg/mL | 8 µg/mL |
| CC(=O)O[C@H]1C[C@@]2(C)[C@@H](CC[C@H]3[C@@]4(C)CC[C@@H](O)[C@@H](C)[C@@H]4[C@@H](O)[C@H](OC(C)=O)[C@@]32C)/C1=C(\CCC=C(C)C)C(=O)O | inactive | 125 µg/mL | 64 µg/mL |
| NC[C@H]1O[C@H](O[C@H]2[C@H](O)[C@@H](O[C@H]3O[C@H](CO)[C@@H](O)[C@H](N)[C@H]3O)[C@H](N)C[C@@H]2N)[C@H](O)[C@@H](O)[C@@H]1O [KANAMYCIN] |  | > 125 µg/mL | 2 µg/mL |
| CC(=O)OC1C[C@@]2(C)[C@@H](CC[C@H]3[C@@]4(C)CCC(=O)[C@@H](C)[C@@H]4[C@@H](O)[C@H](OC(C)=O)[C@@]32C)/C1=C(\CCC=C(C)C)C(=O)O (single isomer, unassigned) | inactive | > 125 µg/mL | 64 µg/mL |
| CC(=O)OC1C[C@@]2(C)[C@@H](CC[C@H]3[C@@]4(C)CCC(=O)[C@@H](C)[C@@H]4[C@@H](OC(C)=O)[C@H](O)[C@@]32C)/C1=C(\CCC=C(C)C)C(=O)O (single isomer, unassigned) | inactive | 8 µg/mL | 4 µg/mL |

Reference: ChEMBL document CHEMBL3400133, “Three new fusidic acid derivatives and their antibacterial activity” (2015)
